In assay [1] the test system is regional cerebral blood flow. Put plainly: Regional cerebral blood flow of the cat, heat conductivity technique (heat transport number λ). The note with it: for duration of action as the half life t1/2 / Δλ% (mean percentage change of the heat transport number): anesthetized cat, 25 mg/kg intraduodenally; for Δλ% (mean percentage change of the heat transport number): suspension in 1% carboxymethylcellulose, n = 6 to 11; for conversion factor (f), based on Δλ%=1 for the racemate: intraduodenal, 25 mg/kg; for cerebral blood flow-stimulating action relative to racemate: racemate made equal to 1. Format: in vivo. On the procedure: The action of compound 1 according to the invention on the regional cerebral blood flow was investigated in comparison with the racemate 2 and the S-(+)-enantiomer 3 with the aid of the heat conductivity technique according to F. A. Gibbs (Proc. Soc. exp. Biol. (N.Y.) 31 (1933), pp. 141 et seq.), H. Hensel (Naturwissenschaften 43 (1956), pp. 477 et seq.) and E. Betz (Acta Neurol. Scand. Suppl. 14 (1965), pp. 29-37) in cats of both sexes under sodium pentobarbital anesthesia (35 mg/kg i.p.). In this method, with the aid of a heat conductivity probe applied to the surface of the brain in the region of the Gyrus marginalis frontalis, the transport of heat from a point of heating to an adjacent temperature-measuring site in the probe, which is directly proportional to the level of the cerebral blood flow, is determined. The mean percentage change in the heat transport number λ after administration of the preparation is used as a measure of the increase in blood flow.
The compounds were administered intraduodenally as a suspension in 1% strength aqueous carboxymethylcellulose. The dose was 25 mg of test substance per kg of body weight. 6 to 11 individual experiments were carried out for each test preparation and the mean percentage change in the heat transport number (Δλ%) was determined from the measurement data obtained.
The melting points m.p., the enantiomeric purities e.e. (enantiomeric excess), the number of measurements n, the mean percentage change (Δλ%) of the heat transport number as a measure of the potency, the conversion factors f, based on Δλ%=1 for the racemate, and the duration of action as the half life t1/2 (min) for R-(-)-1-(5-hydroxyhexyl)-3-methyl-7-propylxanthine (1), the corresponding enantiomer S-(+)-1-(5-hydroxyhexyl)-3-methyl-7-propylxanthine (3) and the racemate (2) of the two compounds is indicated in Table 1.

For another assay, the system named is cerebral blood flow. Conditions: known from DE-C-2,366,527; cited from earlier work.

Regarding `CCCn1cnc2c1c(=O)n(CCCCC(C)O)c(=O)n2C` (racemic) [Compound 2, 1-(5-hydroxyhexyl)-3-methyl-7-propylxanthine], in assay [1], the “duration of action as the half life t1/2” value is 1.67 h; the “Δλ% (mean percentage change of the heat transport number)” value is reported as “+24%”; the “conversion factor (f), based on Δλ%=1 for the racemate” value is 1.00; the “cerebral blood flow-stimulating action relative to racemate” value worked out at 1. Moreover, the “cerebral blood flow-stimulating action (qualitative)” value with cerebral blood flow was “cerebral blood flow-stimulating action”.

Turning to `CCCn1cnc2c1c(=O)n(CCCC[C@@H](C)O)c(=O)n2C` [Compound 1, R-(-)-1-(5-hydroxyhexyl)-3-methyl-7-propylxanthine], in assay [1], the “duration of action as the half life t1/2” value came out at 1.67 h; the “Δλ% (mean percentage change of the heat transport number)” value is listed as “+45%”; the “conversion factor (f), based on Δλ%=1 for the racemate” value turned out to be 1.88; the “cerebral blood flow-stimulating action relative to racemate” value is on record as “about 2”. Also, in assay [1] (ratio R-(-) to S-(+)), the “cerebral blood flow-stimulating action of R-(-)-enantiomer relative to S-(+)-antipode” value is given as “about three” and the “duration of action of R-(-)-compound relative to S-(+)-compound” value was “about three”.

Consider `CCCn1cnc2c1c(=O)n(CCCC[C@H](C)O)c(=O)n2C` [Compound 3, S-(+)-1-(5-hydroxyhexyl)-3-methyl-7-propylxanthine], for which, in assay [1], the “duration of action as the half life t1/2” value stood at 0.6 h; the “Δλ% (mean percentage change of the heat transport number)” value is reported as “+16%”; the “conversion factor (f), based on Δλ%=1 for the racemate” value stood at 0.67; the “cerebral blood flow-stimulating action relative to racemate” value is “about 0.65”.
